Data set [1] is described as follows: Aqueous solubility of the compound at pH 2. Format: physicochemical.
In data set [2] the test system is Human immunodeficiency virus 1. As to the kind of experiment: Inhibition of HIV-1 integrase strand transfer activity assessed as reduction in viral replication in presence of 50% normal human serum.
Data set [3] in a line: Aqueous solubility of the compound at pH 7. Format: physicochemical.
Data set [4] deals with Human immunodeficiency virus 1. As to the kind of experiment: Inhibition of wild-type HIV-1 integrase strand transfer activity assessed as reduction in viral replication in presence of 10% normal human serum.

Values after ≈ are worked out from the molar mass of the structure shown.

Consider `COCCN1C(=O)c2c3c(c(O)c(=O)n2C12CCC1CC12)C(=O)N(Cc1ccc(F)c(Cl)c1)CC3` (stereo unspecified), for which the solubility in data set [1] turned out to be 54 µM (≈ 27.1 µg/mL); in data set [3], 59 µM (≈ 29.6 µg/mL). Moreover, the IP in data set [2] was found to be 197 nM; in data set [4] it was 33 nM.
The matching figures for `COc1ccnc2c1C1(CC2)NC(=O)c2c3c(c(O)c(=O)n21)C(=O)N(Cc1ccc(F)c(Cl)c1)CC3` (racemic): 190 µM (≈ 97.1 µg/mL), 63 µM (≈ 32.2 µg/mL), 74 nM and 13 nM.
The matching figures for `C[C@@H](O)CN1C(=O)c2c3c(c(O)c(=O)n2[C@@]12CC[C@H]1C[C@H]12)C(=O)N(Cc1ccc(F)c(Cl)c1)CC3`: 190 µM (≈ 95.4 µg/mL), 63 µM (≈ 31.6 µg/mL), 33 nM and 7 nM.
As to `O=C1c2c(c3n(c(=O)c2O)C2(CCC4CC42)N(CCN2C(=O)c4ccccc4C2=O)C3=O)CCN1Cc1ccc(F)c(Cl)c1` (stereo unspecified), the solubility in data set [1] and in data set [3] was < 2 µM each time. Moreover, the IP turned out to be 890 nM in data set [2] and 80 nM in data set [4].
Consider `O=C1CC[C@@H](CN2C(=O)c3c4c(c(O)c(=O)n3C23CCC2CC23)C(=O)N(Cc2ccc(F)c(Cl)c2)CC4)N1` (stereo partly specified), for which the IP in data set [2] amounted to 130 nM; in data set [4] it was 40 nM.
As for `CC1CCC2(C1)NC(=O)c1c3c(c(O)c(=O)n12)C(=O)N(Cc1ccc(F)c(Cl)c1)CC3` (racemic), the solubility in data set [1] and in data set [3] was < 5 µM each time. Further, the IP in data set [2] is 700 nM; in data set [4], 110 nM.
On to `O=C1NC2(CCc3ccccc32)n2c1c1c(c(O)c2=O)C(=O)N(Cc2ccc(F)c(Cl)c2)CC1` (racemic), for which the solubility in data set [1] and in data set [3] was < 2 µM throughout. The IP in data set [2] was 190 nM; in data set [4], 27 nM.
For the compound `CN(CCN1C(=O)c2c3c(c(O)c(=O)n2C12CCC1CC12)C(=O)N(Cc1ccc(F)c(Cl)c1)CC3)S(C)(=O)=O` (stereo unspecified), the solubility in data set [1] came to 33 µM (≈ 19.1 µg/mL); in data set [3], 17 µM (≈ 9.84 µg/mL). The IP was determined as 150 nM in data set [2] and 19 nM in data set [4].
The matching figures for `Cc1cccc2c1CCC21NC(=O)c2c3c(c(O)c(=O)n21)C(=O)N(Cc1ccc(F)c(Cl)c1)CC3` (racemic): < 2 µM, < 2 µM, 540 nM and 140 nM.
In the case of `O=C1c2c(c3n(c(=O)c2O)C2(CCC4CC42)N(CCO)C3=O)CCN1Cc1ccc(F)c(Cl)c1` (stereo unspecified), the solubility in data set [1] was found to be 138 µM (≈ 67.3 µg/mL); in data set [3], 107 µM (≈ 52.2 µg/mL). Moreover, the IP is 274 nM in data set [2] and 48 nM in data set [4].
With `COc1nccc2c1C1(CC2)NC(=O)c2c3c(c(O)c(=O)n21)C(=O)N(Cc1ccc(F)c(Cl)c1)CC3` (racemic), the IP was found to be 1940 nM in data set [2] and 493 nM in data set [4].
As for `Cc1ccc2c(c1)C1(CC2)NC(=O)c2c3c(c(O)c(=O)n21)C(=O)N(Cc1ccc(F)c(Cl)c1)CC3` (racemic), the solubility in data set [1] and in data set [3] was < 2 µM throughout. For the same compound, the IP came to 230 nM in data set [2] and 45 nM in data set [4].
For the compound `Cc1cccc2c1C1(CC2)NC(=O)c2c3c(c(O)c(=O)n21)C(=O)N(Cc1ccc(F)c(Cl)c1)CC3` (racemic), the solubility in data set [1] and in data set [3] was < 2 µM in each case. In addition, the IP is 140 nM in data set [2] and 37 nM in data set [4].
With `O=C1N[C@@]2(CC[C@@H]3C[C@@H]32)n2c1c1c(c(O)c2=O)C(=O)N(Cc2ccc(F)c(Cl)c2)CC1`, the solubility in data set [1] is 49 µM (≈ 21.7 µg/mL); in data set [3], 32 µM (≈ 14.2 µg/mL). For the same compound, the IP in data set [2] is 88 nM; in data set [4] it was 16 nM.
As for `COC(C)(C)CCN1C(=O)c2c3c(c(O)c(=O)n2C12CCC1CC12)C(=O)N(Cc1ccc(F)c(Cl)c1)CC3` (stereo unspecified), the solubility in data set [1] and in data set [3] was < 6 µM in each case. The IP amounted to 410 nM in data set [2] and 45 nM in data set [4].

(Values after ChEMBL document CHEMBL4011594, “Discovery and optimization of 2-pyridinone aminal integrase strand transfer inhibitors for the treatment of HIV” (Bioorg Med Chem Lett, 2017).)
